Assay results: patent US20240246941A1, “SUBSTITUTED 4-(3-AMINOPROP-1-YL)AMINOQUINOLINE ANALOGS AS MODULATORS OF MELANOMA-ASSOCIATED ANTIGEN 11 UBIQUITIN LIGASE” (ST. JUDE CHILDREN'S RESEARCH HOSPITAL, INC., priority 2020, published 2024)

These compounds were tested against MAGE-A11:PCF11 (Homo sapiens (Human), UniProt P43364) (assay: TR-FRET single point screening at 15 μM). Conditions: single point TR-FRET screening at 15 μM against MAGE-A11:PCF11.
Sequence of MAGE-A11:PCF11 (P43364 218-429): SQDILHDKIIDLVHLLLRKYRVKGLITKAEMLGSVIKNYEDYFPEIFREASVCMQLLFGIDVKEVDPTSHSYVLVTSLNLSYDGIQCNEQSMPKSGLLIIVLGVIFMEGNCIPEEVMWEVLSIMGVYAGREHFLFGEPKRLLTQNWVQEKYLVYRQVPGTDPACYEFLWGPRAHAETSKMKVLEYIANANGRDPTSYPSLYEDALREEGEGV
Format: binding
Design: unit not given here
From the text: TR-FRET Assays and High-throughput Screen. Terbium-anti-GST antibody, 1 M Tris pH 7.5 1 M MgCl2 and 1 M DTT were purchased from Invitrogen (Carlsbad, CA), BSA was purchased from Sigma (St. Louis, MO). Dimethyl sulfoxide (DMSO) was purchased from Fisher Scientific (Pittsburgh, PA). Black 384-well low volume plates and 384-well polypropylene compound plates were purchased from Corning Incorporated (Tewksbury, MA). The St. Jude FDA drug and Bioactive library (11,293 chemicals), Drug-like library (10,073 chemicals) and Lead-like library (10,041 chemicals) were custom assembled and purchased from commercial sources including Sigma, Microsource (Gaylordsville, CT), selleckchem (Houston, TX), ChemDiv (San Diego, CA), ChemBridge (San Diego, CA), Enamine (Monmouth Jct., NJ), and Life Chemicals (Niagara-on-the-Lake, ON, Canada). They were arrayed (10 mM in DMSO) in 384-well polypropylene compound plates with columns 1, 2, 13 and 14 empty which were reserved for controls.
The TR-FRET assay buffer with a formula of 50 mM Tris pH 7.5, 20 mM MgCl2, 0.1 mg/ml BSA and 1 mM DTT was freshly prepared before each experiment. All TR-FRET assays were performed in black 384-well plates with 20 μl/well assay volume in the TR-FRET assay buffer at room temperature (approximately 25° C.). All peptides or compounds were solubilized in DMSO. To test the competitive activity of peptides or compounds against the interaction between GST-MAGEA11 MHD and FAM-PCF11_4 peptide, 10 μl/well peptide or compound at specified concentration was dispensed into a black 384-well low volume plate, followed by 5 μl/well FAM-PCF11_4 (800 nM), 5 μl/well Tb-anti-GST (20 nM) and GST-MAGEA11 MHD (20 nM). The assay components in each well was then mixed by shaking the plate on an IKA MTS 2/4 digital microtiter plate shaker (IKA Works; Wilmington, NC, USA) at 900 RPM for 1 minute. The plate was further centrifuged in an Eppendorf 5810 centrifuge with an A-4-62 swing-bucket rotor (Eppendorf AG, Hamburg, Germany) at 201 g (1000 rpm) for 30 seconds. The plate was then incubated for 90 min with a lid to avoid light exposure to the assay components. After incubation, the fluorescent emission signals at 520 nm and 490 nm channels of individual wells were measured with a PHERAstar FS plate reader (BMG Labtech; Durham, NC, USA) by using a 340 nm excitation filter, 100 μs delay time, and 200 μs integration time. The TR-FRET fluorescence emission ratio (TR-FRET signal) for each well was presented as 10 000×520 nm/490 nm, which was used directly for curve fitting, or further converted to % Inhibition based on the respective positive and negative controls. The graphic software GraphPad Prism 4.81 (GraphPad Software; La Jolla, CA, USA) was used to generate curves and derive IC50 values of tested peptides or compounds, if applicable.
TR-FRET screen for identifying MAGEA11 small molecule inhibitors was performed as follows. The primary one-concentration screening and subsequent 10 or 20-concentration dose response tests were accomplished with an automated High Throughput Screening system (HighRes Biosolutions, Beverly, MA)^30. In the primary screening, 15 μl/well FAM-PCF11_4 (267 nM) was first dispensed with a Multidrop Combi Reagent Dispenser (Thermo Fisher Scientific, Waltham, MA) to black 384-well low volume assay plates. The plates were spun down with a Velocity11 VSpin microplate centrifuge (Agilent Technologies, Santa Clara, CA). 30 nl/well of 10 mM compound/DMSO solutions, or DMSO alone, were transferred from compound plates (the St. Jude FDA drug and bioactive library, Drug-like library and Lead-like library) or a control plate to the assay plates with a Pin Tool (V&P Scientific, San Diego, CA). The compounds were arrayed in columns 3 to 12 and columns 15 to 24 of compound plates. The controls were arrayed in columns 1, 2, 13 and 14 of a compound plate. […]
Work on `CCCCCCNCCCNc1c2ccc(Cl)cc2nc2ccc(OC)cc12` [SJ000361097] yielded a TR-FRET signal of −281.7.
`COc1ccc2nc3cc(Cl)ccc3c(NCCCNCc3ccc4[nH]ccc4c3)c2c1` [SJ000520914] was tested, and the TR-FRET signal was −184.2.
`CN(C)c1cc(NC(=O)CN2CCOCC2)c2ccccc2n1` [SJ000111677] was tested, and the TR-FRET signal was 4.988.
`CCOC(=O)c1cnc2ccc(OC)cc2c1N1CCN(C)CC1` [SJ000279507] gave a TR-FRET signal of −2.791.
With `Cc1ccc(S(=O)(=O)c2cnc3ccccc3c2N2CCN(c3ccccc3)CC2)cc1` [SJ000117047] the TR-FRET signal was −6.567.
`COc1ccc2nc3cc(Cl)ccc3c(NCCCNCc3ccccc3)c2c1` [SJ000361086] was tested, and the TR-FRET signal was −432.4.
For `COc1ccccc1CN(CCCCNc1ccnc2cc(Cl)ccc12)Cc1ccccc1` [SJ000522726], the TR-FRET signal was 19.4.
For `COc1ccc2nc3cc(Cl)ccc3c(NCCCNCc3cc4ccccc4s3)c2c1` [SJ000521000], the TR-FRET signal was −220.4.
Work on `CCN1CCN(c2c(S(=O)(=O)c3ccc(OC)cc3)cnc3cc(OC)c(OC)cc23)CC1` [SJ000083972] yielded a TR-FRET signal of 7.411.
`CCCN(CCCNc1c2ccc(Cl)cc2nc2ccc(OC)cc12)Cc1ccc(OC)c(F)c1` [SJ000522963] showed a TR-FRET signal of −177.5.
With `CCN(CC)CCCC(C)Nc1ccnc2cc(Cl)ccc12` (stereo not drawn) [SJ000285185] the TR-FRET signal was −2.592.
In the case of `COc1ccccc1N1CCN(c2c(S(=O)(=O)c3ccc(Cl)cc3)cnc3ccc(C)cc23)CC1` [SJ000117070], the TR-FRET signal is reported as −15.37.
`COc1ccc2ncc(S(=O)(=O)c3ccccc3)c(N3CCN(c4ccccc4F)CC3)c2c1` [SJ000315263] gave a TR-FRET signal of −252.5.
In the case of `O=S(=O)(c1ccccc1)c1cnc2ccc(Cl)cc2c1N1CCN(Cc2ccccc2)CC1` [SJ000247242], the TR-FRET signal is reported as −30.28.
With `Oc1ccccc1CN1CCC(Nc2ccnc3cc(Cl)ccc23)CC1` [SJ000357529] the TR-FRET signal was 22.15.

Same assay, conditions: single point TR-FRET screening of quinoline compounds against MAGE-A11:PCF11; 15 μM
For `CCCN(CCCNc1ccnc2cc(C(F)(F)F)ccc12)Cc1cc(F)ccc1C` [SJ000521014], the TR-FRET signal was 20.64.
`FC(F)(F)c1ccc2c(NCCCNCC3CCOC3)ccnc2c1` (stereo not drawn) [SJ000521065] showed a TR-FRET signal of 15.56.
`Clc1ccc2c(NCCCN(Cc3ccccc3)Cc3ccccn3)ccnc2c1` [SJ000312678] showed a TR-FRET signal of −3.851.
`CCCN(CCCNc1c2ccc(Cl)cc2nc2ccc(OC)cc12)Cc1ccc(F)c(F)c1` [SJ000520942] showed a TR-FRET signal of 0.9703.
`CCCN(CCCNc1ccnc2cc(C(F)(F)F)ccc12)Cc1cc(Br)cs1` [SJ000520478] showed a TR-FRET signal of −9.243.
Work on `CCC(CC)CNCCCNc1ccnc2cc(Cl)ccc12` [SJ000361103] yielded a TR-FRET signal of 16.55.
In the case of `CCCN(CCCNc1ccnc2cc(C(F)(F)F)ccc12)Cc1ccccc1C(=O)O` [SJ000523073], the TR-FRET signal is reported as 16.86.
Work on `N#Cc1ccc(Cc2ccc3c(NCCCNCc4ccco4)ccnc3c2)cc1` [SJ000311302] yielded a TR-FRET signal of 20.43.
`CCCCNCCCNc1ccnc2cc(Cl)ccc12` [SJ000521027] showed a TR-FRET signal of 8.454.
`Clc1ccc2c(NCCCNCc3cc4ccccc4o3)ccnc2c1` [SJ000521029] gave a TR-FRET signal of 17.91.
In the case of `CCCN(CCCNc1c2ccc(Cl)cc2nc2ccc(OC)cc12)Cc1cc2ccccc2nc1Cl` [SJ000522737], the TR-FRET signal is reported as −83.74.
With `Cn1ccnc1CNCCCNc1ccnc2cc(Cl)ccc12` [SJ000521040] the TR-FRET signal was 1.449.
`Cc1cc(C)cc(Cc2ccc3c(NCCCNCc4ccco4)ccnc3c2)c1` [SJ000311318] was tested, and the TR-FRET signal was 39.31.
`FC(F)(F)Oc1ccc(CN(CCCNc2ccnc3cc(Cl)ccc23)Cc2ccccc2)cc1` [SJ000520460] gave a TR-FRET signal of 25.05.
Work on `CCCCCN(CCC)CCCNc1ccnc2cc(C(F)(F)F)ccc12` [SJ000361271] yielded a TR-FRET signal of 30.93.
With `CCCN(CCCNc1c2ccc(Cl)cc2nc2ccc(OC)cc12)Cc1cc(OC(F)(F)F)ccc1OC` [SJ000522984] the TR-FRET signal was −36.71.
With `FC(F)(F)c1ccc2c(NCCCNCc3nc4ccccc4s3)ccnc2c1` [SJ000521062] the TR-FRET signal was 14.43.
`COc1ccc(O)c(CN(CCCNc2ccnc3cc(Cl)ccc23)Cc2ccccc2)c1` [SJ000357463] gave a TR-FRET signal of 14.17.
